Laboratory results reported in US9492471B2, “Methods of treating a disease or disorder associated with Bruton'S Tyrosine Kinase” (Celgene Avilomics Research, Inc., priority 2013, dated 2016).
Read-outs that look alike come from different tables or passages of the source.

Experiments:
Experiment in all cases: HotSpot kinase profiling
Type in all cases: biochemical
IRR/INSRR = target: T1, IRR/INSRR (Homo sapiens, UniProt P14616)
T1 construct: purchased Reaction Biology Corp
Method in brief: (§1)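 Radio-isotope P81 filtration format. Substrate + required cofactors in reaction buffer, kinase added, 2 h RT. Stop, wash with 0.1% phosphoric acid, detect. % inhibition vs DMSO; mean of duplicates where repeated.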

CHK1 = target: T2, CHK1 (Homo sapiens, UniProt O14757)
T2 construct: purchased Reaction Biology Corp
T2 sequence (O14757 1-476): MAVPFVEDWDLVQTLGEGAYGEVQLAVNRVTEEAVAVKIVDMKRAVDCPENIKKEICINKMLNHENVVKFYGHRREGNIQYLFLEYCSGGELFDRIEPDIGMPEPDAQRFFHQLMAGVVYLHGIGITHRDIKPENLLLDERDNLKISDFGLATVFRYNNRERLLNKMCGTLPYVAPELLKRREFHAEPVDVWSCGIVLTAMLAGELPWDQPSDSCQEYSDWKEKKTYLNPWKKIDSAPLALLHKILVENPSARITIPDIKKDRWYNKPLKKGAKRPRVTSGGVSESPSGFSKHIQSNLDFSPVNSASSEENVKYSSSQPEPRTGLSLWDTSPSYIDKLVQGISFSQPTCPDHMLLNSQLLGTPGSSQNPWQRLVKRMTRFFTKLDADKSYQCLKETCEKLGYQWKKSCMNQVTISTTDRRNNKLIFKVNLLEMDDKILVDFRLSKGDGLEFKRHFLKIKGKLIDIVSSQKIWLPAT
Method in brief: as §1

SGK1 = target: T3, SGK1 (Homo sapiens, UniProt O00141)
T3 construct: purchased Reaction Biology Corp
T3 sequence (O00141 1-431): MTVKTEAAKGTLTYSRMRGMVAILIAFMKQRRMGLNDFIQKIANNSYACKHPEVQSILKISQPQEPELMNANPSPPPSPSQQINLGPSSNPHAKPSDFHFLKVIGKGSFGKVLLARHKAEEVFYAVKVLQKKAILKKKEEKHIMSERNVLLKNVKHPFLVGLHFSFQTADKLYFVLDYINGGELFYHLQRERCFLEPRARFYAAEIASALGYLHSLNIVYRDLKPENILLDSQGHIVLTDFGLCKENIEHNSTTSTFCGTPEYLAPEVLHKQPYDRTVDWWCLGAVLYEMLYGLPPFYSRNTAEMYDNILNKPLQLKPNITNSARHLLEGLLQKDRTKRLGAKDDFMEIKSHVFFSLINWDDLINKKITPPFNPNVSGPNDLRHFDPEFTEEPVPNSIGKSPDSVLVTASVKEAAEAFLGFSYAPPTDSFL
Method in brief: as §1

VRK1 = target: T4, VRK1 (Homo sapiens, UniProt Q99986)
T4 construct: purchased Reaction Biology Corp
T4 sequence (Q99986 1-396): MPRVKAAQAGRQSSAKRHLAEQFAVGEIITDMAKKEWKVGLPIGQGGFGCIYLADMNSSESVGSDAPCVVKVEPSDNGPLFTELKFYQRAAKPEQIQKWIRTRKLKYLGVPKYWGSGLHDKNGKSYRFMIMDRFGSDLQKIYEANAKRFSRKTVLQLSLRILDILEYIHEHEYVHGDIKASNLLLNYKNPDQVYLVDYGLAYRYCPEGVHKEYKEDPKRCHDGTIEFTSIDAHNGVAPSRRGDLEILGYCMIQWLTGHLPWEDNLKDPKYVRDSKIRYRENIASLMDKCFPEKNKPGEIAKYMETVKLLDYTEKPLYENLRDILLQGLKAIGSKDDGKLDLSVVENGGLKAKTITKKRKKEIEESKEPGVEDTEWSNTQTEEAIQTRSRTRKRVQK
Method in brief: as §1

[1] = read-out: % Enzyme Activity (relative to DMSO controls) Run 1
[2] = read-out: % Enzyme Activity (relative to DMSO controls) Run 2

T1 sequence (P14616 27-1297): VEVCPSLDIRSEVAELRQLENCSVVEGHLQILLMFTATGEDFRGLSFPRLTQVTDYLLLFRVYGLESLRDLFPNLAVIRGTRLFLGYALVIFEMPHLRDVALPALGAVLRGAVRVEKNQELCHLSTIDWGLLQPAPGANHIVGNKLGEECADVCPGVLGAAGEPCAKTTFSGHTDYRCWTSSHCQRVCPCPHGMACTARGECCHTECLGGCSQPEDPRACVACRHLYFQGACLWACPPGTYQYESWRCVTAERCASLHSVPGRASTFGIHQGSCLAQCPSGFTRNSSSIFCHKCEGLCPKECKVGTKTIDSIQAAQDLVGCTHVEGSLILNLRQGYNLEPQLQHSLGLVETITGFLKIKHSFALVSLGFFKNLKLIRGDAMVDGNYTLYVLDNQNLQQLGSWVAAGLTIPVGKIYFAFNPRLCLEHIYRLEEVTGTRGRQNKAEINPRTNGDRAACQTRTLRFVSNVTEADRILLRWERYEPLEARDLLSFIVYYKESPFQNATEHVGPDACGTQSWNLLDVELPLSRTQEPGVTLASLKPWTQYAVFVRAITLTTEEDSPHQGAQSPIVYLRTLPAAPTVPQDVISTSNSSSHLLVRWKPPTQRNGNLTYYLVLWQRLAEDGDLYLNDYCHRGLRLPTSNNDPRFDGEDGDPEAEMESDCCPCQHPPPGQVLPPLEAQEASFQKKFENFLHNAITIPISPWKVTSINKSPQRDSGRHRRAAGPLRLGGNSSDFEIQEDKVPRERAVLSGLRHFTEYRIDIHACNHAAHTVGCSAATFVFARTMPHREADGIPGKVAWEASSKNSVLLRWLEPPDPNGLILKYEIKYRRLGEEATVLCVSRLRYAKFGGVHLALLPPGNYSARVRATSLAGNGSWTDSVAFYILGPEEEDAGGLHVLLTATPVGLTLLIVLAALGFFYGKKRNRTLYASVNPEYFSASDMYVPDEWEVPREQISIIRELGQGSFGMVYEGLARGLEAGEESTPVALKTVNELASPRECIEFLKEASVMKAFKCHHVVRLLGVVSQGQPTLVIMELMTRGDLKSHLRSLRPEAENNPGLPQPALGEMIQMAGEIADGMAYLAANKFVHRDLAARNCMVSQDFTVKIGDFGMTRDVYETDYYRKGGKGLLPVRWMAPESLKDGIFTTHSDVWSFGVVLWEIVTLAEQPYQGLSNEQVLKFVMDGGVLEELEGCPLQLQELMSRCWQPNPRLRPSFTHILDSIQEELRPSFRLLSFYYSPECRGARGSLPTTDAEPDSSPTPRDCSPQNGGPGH

SMILES: C=CC(=O)Nc1cccc(Nc2nc(Nc3ccc(OCCOC)c(F)c3)ncc2F)c1 [Compound 2]
- inhibition at 3 µM (IRR/INSRR): 10.1%
- remaining activity at 3 µM (IRR/INSRR; [1]): 88.9%
- remaining activity at 3 µM (IRR/INSRR; [2]): 91%
- inhibition at 3 µM (CHK1): 6.15%
- remaining activity at 3 µM (CHK1; [1]): 93.1%
- remaining activity at 3 µM (CHK1; [2]): 94.6%
- inhibition at 3 µM (SGK1): 0.37%
- remaining activity at 3 µM (SGK1; [1]): 99.7%
- remaining activity at 3 µM (SGK1; [2]): 99.5%
- inhibition at 3 µM (VRK1): 12.9%
- remaining activity at 3 µM (VRK1; [1]): 84.3%
- remaining activity at 3 µM (VRK1; [2]): 89.9%
